Several values for one entry are separate records, joined by “and”; a condition that tells them apart may be missing. Identical values can stand only once. Toxic doses and inconclusive results are not listed. Cut-off read from the data, not from the text of the source: active = T/C of 150% or more; inactive = T/C below 125%.
System: L1210 leukemia ip in BDF1 mice, survival T/C
Assay: NCI In Vivo Anticancer Drug Screen. Data for tumor model L1210 Leukemia (intraperitoneal) in B6D2F1 (BDF1) mice
Conditions: endpoint: mean survival time, higher = longer survival
Procedure, shortened: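 Ratio derived from survival: compound-dosed mice over vehicle-dosed mice, all bearing a transplantable tumor.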

[1] = dose: 100.0 mg/kg/injection, schedule: Q01DX001 (ip), vehicle: saline
[2] = dose: 100.0 mg/kg/injection, schedule: Q01DX009 (ip), vehicle: saline
[3] = dose: 200.0 mg/kg/injection, schedule: Q01DX001 (ip), vehicle: saline
[4] = dose: 400.0 mg/kg/injection, schedule: Q01DX001 (ip), vehicle: saline
[5] = dose: 100.0 mg/kg/injection, schedule: Q04DX003 (ip), vehicle: Klucel (hydroxypropylcellulose) (HPC)
[6] = dose: 200.0 mg/kg/injection, schedule: Q04DX003 (ip), vehicle: Klucel (hydroxypropylcellulose) (HPC)
[7] = dose: 400.0 mg/kg/injection, schedule: Q04DX003 (ip), vehicle: Klucel (hydroxypropylcellulose) (HPC)
[8] = dose: 100.0 mg/kg/injection, schedule: Q01DX009 (ip), vehicle: Klucel (hydroxypropylcellulose) (HPC)
[9] = dose: 200.0 mg/kg/injection, schedule: Q01DX009 (ip), vehicle: Klucel (hydroxypropylcellulose) (HPC)
[10] = dose: 400.0 mg/kg/injection, schedule: Q01DX009 (ip), vehicle: Klucel (hydroxypropylcellulose) (HPC)
[11] = dose: 100.0 mg/kg/injection, schedule: Q01DX009 (ip), vehicle: saline with Tween-80
[12] = dose: 200.0 mg/kg/injection, schedule: Q01DX009 (ip), vehicle: saline with Tween-80
[13] = dose: 25.0 mg/kg/injection, schedule: Q01DX001 (ip), vehicle: saline
[14] = dose: 100.0 mg/kg/injection, schedule: Q01DX001 (ip), vehicle: carboxymethylcellulose (CMC)
[15] = dose: 200.0 mg/kg/injection, schedule: Q01DX001 (ip), vehicle: carboxymethylcellulose (CMC)

Measured: T/C

CC[N+](C)(CC)CCN1c2ccccc2Sc2ccccc21
inactive: dose: 12.5 mg/kg/injection, schedule: Q04DX003 (ip), vehicle: saline 91 % of control | dose: 25.0 mg/kg/injection, schedule: Q04DX003 (ip), vehicle: saline 94 % of control and 86 % of control | dose: 50.0 mg/kg/injection, schedule: Q04DX003 (ip), vehicle: saline 86 % of control and 88 % of control

CS(=O)(=O)CC(=O)c1ccc(O)cc1O
inactive: dose: 100.0 mg/kg/injection, schedule: Q01DX001 (ip), vehicle: saline with Tween-80 106 % of control | dose: 200.0 mg/kg/injection, schedule: Q01DX001 (ip), vehicle: saline with Tween-80 103 % of control | dose: 400.0 mg/kg/injection, schedule: Q01DX001 (ip), vehicle: saline with Tween-80 95 % of control

O=C1CCSCC1
inactive: [1] 107 % of control | [2] 100 % of control | dose: 100.0 mg/kg/injection, schedule: Q04DX003 (ip), vehicle: saline 100 % of control | [3] 104 % of control | dose: 200.0 mg/kg/injection, schedule: Q01DX009 (ip), vehicle: saline 95 % of control | dose: 200.0 mg/kg/injection, schedule: Q04DX003 (ip), vehicle: saline 101 % of control | [4] 95 % of control | dose: 400.0 mg/kg/injection, schedule: Q01DX009 (ip), vehicle: saline 95 % of control | dose: 400.0 mg/kg/injection, schedule: Q04DX003 (ip), vehicle: saline 104 % of control

CC(=O)Nc1cc(Cl)cc2c1-c1c(Cl)cc(Cl)cc1C2=O
inactive: [2] 98 % of control | [5] 94 % of control | [6] 94 % of control | [7] 91 % of control

CCCN(CCC)C(=O)CCl
inactive: [1] 109 % of control | [3] 95 % of control

NS(=O)(=O)c1ccc(NC(=O)Nc2ccc(Cl)cc2[N+](=O)[O-])cc1
inactive: [8] 94 % of control | [9] 91 % of control | [10] 86 % of control

CC(C)(C)NC1CCCC1Cl (stereo unspecified)
inactive: [11] 106 % of control | [12] 102 % of control

CN(C)CCC(C=NCC(CCN(C)C)(CCN(C)C)c1cccc2ccccc12)(CCN(C)C)c1cccc2ccccc12
inactive: dose: 12.5 mg/kg/injection, schedule: Q01DX009 (ip), vehicle: saline with Tween-80 90 % of control | dose: 12.5 mg/kg/injection, schedule: Q04DX003 (ip), vehicle: saline with Tween-80 102 % of control | dose: 25.0 mg/kg/injection, schedule: Q01DX009 (ip), vehicle: saline with Tween-80 91 % of control | dose: 25.0 mg/kg/injection, schedule: Q04DX003 (ip), vehicle: saline with Tween-80 98 % of control

CN1C(=O)c2ccccc2NC(=O)C12OC2c1ccccc1 (stereo unspecified)
inactive: [1] 101 % of control | [3] 101 % of control | [4] 97 % of control

CC(=O)Oc1cc(OC(C)=O)c2ccccc2c1OC(C)=O
inactive: dose: 1.56 mg/kg/injection, schedule: Q04DX003 (ip), vehicle: saline 102 % of control | dose: 3.12 mg/kg/injection, schedule: Q04DX003 (ip), vehicle: saline 106 % of control | dose: 6.25 mg/kg/injection, schedule: Q04DX003 (ip), vehicle: saline 102 % of control | dose: 12.5 mg/kg/injection, schedule: Q01DX001 (ip), vehicle: saline 103 % of control | [13] 97 % of control | dose: 50.0 mg/kg/injection, schedule: Q01DX001 (ip), vehicle: saline 100 % of control

CN(C)CCOC(c1ccccc1)c1ccccc1 (tested in a mixture with another compound)
inactive: [1] 109 % of control | [3] 101 % of control | [4] 95 % of control

O=C1CCCC(=O)c2ccccc21
inactive: [14] 98 % of control | [15] 93 % of control | dose: 400.0 mg/kg/injection, schedule: Q01DX001 (ip), vehicle: carboxymethylcellulose (CMC) 102 % of control

COc1ccc(NC(=O)c2ccco2)cc1
inactive: dose: 100.0 mg/kg/injection, schedule: Q04DX002 (ip), vehicle: Klucel (hydroxypropylcellulose) (HPC) 123 % of control | dose: 200.0 mg/kg/injection, schedule: Q04DX002 (ip), vehicle: Klucel (hydroxypropylcellulose) (HPC) 112 % of control | dose: 400.0 mg/kg/injection, schedule: Q04DX002 (ip), vehicle: Klucel (hydroxypropylcellulose) (HPC) 123 % of control

O=C1CCCc2[nH]c(=O)ccc21
inactive: [1] 101 % of control | [3] 94 % of control | [4] 96 % of control

O=S(=O)(OCCCC1CC2C=CC1C2)c1ccc(Br)cc1 (stereo unspecified)
inactive: dose: 75.0 mg/kg/injection, schedule: Q01DX001 (ip), vehicle: carboxymethylcellulose (CMC) 104 % of control | dose: 75.0 mg/kg/injection, schedule: Q04DX003 (ip), vehicle: carboxymethylcellulose (CMC) 89 % of control | dose: 150.0 mg/kg/injection, schedule: Q01DX001 (ip), vehicle: carboxymethylcellulose (CMC) 91 % of control | dose: 150.0 mg/kg/injection, schedule: Q04DX003 (ip), vehicle: carboxymethylcellulose (CMC) 100 % of control | dose: 300.0 mg/kg/injection, schedule: Q04DX003 (ip), vehicle: carboxymethylcellulose (CMC) 98 % of control

Nc1ccc(-c2ccc(N)cc2Br)c(Br)c1
inactive: [11] 99 % of control | dose: 100.0 mg/kg/injection, schedule: Q04DX003 (ip), vehicle: saline with Tween-80 95 % of control | [12] 105 % of control | dose: 200.0 mg/kg/injection, schedule: Q04DX003 (ip), vehicle: saline with Tween-80 97 % of control | dose: 400.0 mg/kg/injection, schedule: Q01DX009 (ip), vehicle: saline with Tween-80 88 % of control | dose: 400.0 mg/kg/injection, schedule: Q04DX003 (ip), vehicle: saline with Tween-80 92 % of control

O=C(Nc1ccc(Nc2ccccc2)cc1)Nc1cc(C(F)(F)F)ccc1Cl
inactive: [8] 103 % of control | [9] 93 % of control | [10] 87 % of control

c1ccc(C2=C([P+](c3ccccc3)(c3ccccc3)c3ccccc3)CCO2)cc1
inactive: dose: 3.0 mg/kg/injection, schedule: Q04DX003 (ip), vehicle: saline 102 % of control | dose: 3.12 mg/kg/injection, schedule: Q01DX009 (ip), vehicle: saline 117 % of control | dose: 6.0 mg/kg/injection, schedule: Q01DX001 (ip), vehicle: saline 108 % of control | dose: 6.0 mg/kg/injection, schedule: Q04DX003 (ip), vehicle: saline 117 % of control | dose: 6.25 mg/kg/injection, schedule: Q01DX009 (ip), vehicle: saline 109 % of control | dose: 12.0 mg/kg/injection, schedule: Q01DX001 (ip), vehicle: saline 108 % of control | dose: 12.0 mg/kg/injection, schedule: Q04DX003 (ip), vehicle: saline 101 % of control and 107 % of control | dose: 12.5 mg/kg/injection, schedule: Q01DX009 (ip), vehicle: saline 92 % of control | [13] 102 % of control

CC1CCN(c2ccc([N+](=O)[O-])cc2[N+](=O)[O-])CC1
inactive: [8] 99 % of control | [5] 104 % of control | [9] 99 % of control | [6] 98 % of control | [7] 103 % of control

[I][Bi]([I])[I]
inactive: dose: 50.0 mg/kg/injection, schedule: Q01DX001 (ip), vehicle: carboxymethylcellulose (CMC) 114 % of control | [14] 105 % of control | [1] 108 % of control | [15] 102 % of control | [3] 94 % of control | [4] 97 % of control

Cc1cc(C(=O)O)c(C)n1-c1ccccc1C(=O)O
inactive: dose: 50.0 mg/kg/injection, schedule: Q01DX009 (ip), vehicle: Klucel (hydroxypropylcellulose) (HPC) 102 % of control | dose: 100.0 mg/kg/injection, schedule: Q01DX001 (ip), vehicle: Klucel (hydroxypropylcellulose) (HPC) 103 % of control | [8] 89 % of control | dose: 200.0 mg/kg/injection, schedule: Q01DX001 (ip), vehicle: Klucel (hydroxypropylcellulose) (HPC) 92 % of control | [9] 93 % of control | dose: 400.0 mg/kg/injection, schedule: Q01DX001 (ip), vehicle: Klucel (hydroxypropylcellulose) (HPC) 94 % of control

CNC(=O)Oc1cccc2c1C(=O)OC2=O
inactive: dose: 100.0 mg/kg/injection, schedule: Q01DX001 (ip), vehicle: other 93 % of control | dose: 100.0 mg/kg/injection, schedule: Q04DX003 (ip), vehicle: other 94 % of control | dose: 200.0 mg/kg/injection, schedule: Q01DX001 (ip), vehicle: other 90 % of control | dose: 200.0 mg/kg/injection, schedule: Q04DX003 (ip), vehicle: other 94 % of control | dose: 400.0 mg/kg/injection, schedule: Q04DX003 (ip), vehicle: other 98 % of control

Source: PubChem BioAssay AID248 (DTP/NCI, 2004)
